Data: patent publication US20220257557A1, “PHARMACEUTICAL COMPOSITION FOR PREVENTING OR TREATING NEUROLOGICAL DISEASES” (GLACEUM INC., priority 2019, published 2022)

Key:
[1] = biological target: T1, rePON1 (PON1, paraoxonase 1) (Homo sapiens, UniProt P27169); test: Prevention of inhibition of PON1 activity by oxidized linolenic acid (TBBL substrate); format: biochemical; conditions: for activity at 30 µM: 30 μM compound with rePON1 30 min, then oxidized linolenic acid 2 h, TBBL substrate, normal control 100, negative control 73.64; for extent to which inhibition of rePON1 activity was prevented, compared with glabridin: compound 30 μM vs glabridin 30 μM; for extent to which inhibition of rePON1 activity was prevented, compared with glabridin / inhibition of rePON1 activity by oxidized linolenic acid: result in words; for inhibition of rePON1 activity by oxidized linolenic acid: compound 30 μM
T1 construct: purchased Thermo Corp. RP-75678
T1 sequence (P27169 whole entry): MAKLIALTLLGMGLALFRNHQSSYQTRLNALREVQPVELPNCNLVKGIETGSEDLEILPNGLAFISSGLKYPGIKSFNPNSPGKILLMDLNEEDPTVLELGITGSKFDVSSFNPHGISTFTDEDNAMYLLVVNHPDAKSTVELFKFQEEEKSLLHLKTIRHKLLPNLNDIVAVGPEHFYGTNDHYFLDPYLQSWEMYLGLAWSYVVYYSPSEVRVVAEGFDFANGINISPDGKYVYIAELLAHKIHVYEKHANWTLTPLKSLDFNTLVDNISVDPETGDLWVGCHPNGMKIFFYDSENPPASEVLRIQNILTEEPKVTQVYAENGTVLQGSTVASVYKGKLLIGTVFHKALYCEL
Description: Based on the fact that the activity of PON1 is inhibited when PON1 is treated with oxidized linolenic acid, an experiment was conducted to confirm the prevention of inhibition of PON1 activity. The activity of PON1 was measured using TBBL (5-thiobutyl butyrolactones) as a substrate.
Specifically, after 9.6 μl of 50 mM Tris-HCl containing 1 mM CaCl2 was added to each of […] Eppendorf tubes, 0.2 μl of each of the compounds of Formulas III-1, IV-1, V-1, IV-2, V-2, II-1, IV-3, V-3, III-2, IV-4, V-4, II-2 and III-3 and glabridine was added to each tube so that the concentration thereof was 30 μM. 0.2 μl of rePON1 (RP-75678, Thermo Corp.) was added to each of the 12 tubes and mixed. Thereafter, each of the mixtures was allowed to react at room temperature for 30 minutes, and 0.5 μl of 1 mM oxidized linolenic acid (OX-LA) dissolved in DMSO was added thereto in order to inhibit rePON1 activity, followed by reaction at room temperature for 2 hours, thus preparing solutions (I).
25 μl of 0.5 mM DTNB dissolved in 50 mM Tris-HCl containing 1 mM CaCl2 was dispensed into each well of a 384-well plate, and then 10 μl of each of the solutions (I) was dispensed into each well, and 20 μl of 2 mM TBBL dissolved in 50 mM Tris-HCl containing 1 mM CaCl2 was added to each well, thus preparing samples. The absorbance of each of the samples at 420 nm was measured using a spectrometer (SpectraMax M2) at 37° C. every 2 minutes for 1 hour.
In addition, a negative control was prepared in the same manner as the above-described method, except that, for the preparation of a solution, 0.2 μl of DMSO was added instead of the compounds of Formulas III-1, IV-1, V-1, IV-2, V-2, II-1, IV-3, V-3, III-2, IV-4, V-4, II-2 and III-3 and glabridin. Furthermore, a normal control was prepared in the same manner as the above-described method, except that, for the preparation of a solution, 0.2 μl of DMSO was added instead of the above-described compounds and glabridin and that oxidized linolenic acid was not added. The absorbance of each of the negative control and the normal control was measured.
Using SoftMax Pro software, the activity of PON1 was calculated from the absorbance using the following Equation 1, and the results are shown in Table 1 below.
Activity=(absorbancesample−absorbanceblank)/(absorbancePON1−absorbanceblank)*100 [Equation 1]

BV2 cells [2] = test: iNOS and COX-2 expression after LPS (Western blot); format: cell-based; conditions: 3 h pretreatment (Table 3 amounts), LPS 1 μg/ml 24 h
Description: (§1) RAW264.7 cells or BV2 cells (5×10^5 cells/well) were dispensed in DMEM containing 10% heat-inactivated FBS, 10 IU/mL penicillin G, 100 μg/mL streptomycin and 2 mM L-glutamine and cultured in a 5% CO2 incubator at a temperature of 37° C.
(§2) The compound of Formula III-3, III-4, V-3, III-1, IV-1, V-1, IV-2, V-2 or II-2 was added to the RAW264.7 cells or BV2 cells, and the toxicities of the compounds were determined by MTT assay.
(§3) The pretreated cells of Experimental Example 4-1 were treated with 1 μg/ml of LPS for 24 hours, and then the expression levels of iNOS and COX-2 were observed through Western blot, and the production of NO and PGE2 was measured.

RAW264.7 cells [3] = test: iNOS and COX-2 expression after LPS (Western blot); format: cell-based; conditions: 3 h pretreatment (Table 3 amounts), LPS 1 μg/ml 24 h
Description: as §1, §2, §3

BV2 cells [4] = test: NO and PGE2 production after LPS; format: cell-based; conditions: 3 h pretreatment (Table 3 amounts), LPS 1 μg/ml 24 h
Description: as §1, §2, §3

RAW264.7 cells [5] = test: NO and PGE2 production after LPS; format: cell-based; conditions: 3 h pretreatment (Table 3 amounts), LPS 1 μg/ml 24 h
Description: as §1, §2, §3

BV2 cells [6] = test: IL-1β, IL-6 and TNF-α mRNA expression after LPS (RT-PCR); format: cell-based; conditions: 3 h pretreatment (Table 3 amounts), LPS 1 μg/ml 6 h
Description: as §1, §2
(§4) The pretreated cells of Experimental Example 4-1 were treated with 1 μg/ml of LPS for 6 hours, and then the mRNA expression level of the cytokine IL-1β, IL-6 or TNF-α produced in the inflammatory response was analyzed using RT-PCR.

RAW264.7 cells [7] = test: as above; format: cell-based; conditions: 3 h pretreatment (Table 3 amounts), LPS 1 μg/ml 6 h
Description: as §1, §2, §4

RAW264.7 cells [8] = test: Transcription of NF-κB protein (p65, p50) into nucleus after LPS (Western blot); format: cell-based; conditions: 3 h pretreatment (Table 3 amounts), LPS 1 μg/ml 1 h
Description: RAW264.7 cells or BV2 cells (5×10^5 cells/well) were dispensed in DMEM containing 10% heat-inactivated FBS, 10 IU/mL penicillin G, 100 μg/mL streptomycin and 2 mM L-glutamine and cultured in a 5% CO2 incubator at a temperature of 37° C. […]
(§5) The pretreated cells of Experimental Example 4-1 were treated with 1 μg/ml of LPS for 1 hour, and then the level of transcription of NF-κB protein into the nucleus of each of p65 and p50 was analyzed through Western blot.

BV2 cells [9] = test: as above; format: cell-based; conditions: 3 h pretreatment (Table 3 amounts), LPS 1 μg/ml 1 h
Description: as §1, §2, §5

| Compound | activity at 30 µM [1] [%] | extent to which inhibition of rePON1 activity was prevented, compared with glabridin [1] | inhibition of rePON1 activity by oxidized linolenic acid [1] | expression level of COX-2 (BV2 cells [2]) | expression level of iNOS (BV2 cells [2]) | expression level of COX-2 (RAW264.7 cells [3]) | expression level of iNOS (RAW264.7 cells [3]) | production of NO (BV2 cells [4]) | production of PGE2 (BV2 cells [4]) | production of NO (RAW264.7 cells [5]) | production of PGE2 (RAW264.7 cells [5]) | mRNA expression level of IL-1β (BV2 cells [6]) | mRNA expression level of IL-6 (BV2 cells [6]) | mRNA expression level of TNF-α (BV2 cells [6]) | mRNA expression level of IL-1β (RAW264.7 cells [7]) | mRNA expression level of IL-6 (RAW264.7 cells [7]) | mRNA expression level of TNF-α (RAW264.7 cells [7]) | level of transcription of NF-κB protein into the nucleus, p50 (RAW264.7 cells [8]) | level of transcription of NF-κB protein into the nucleus, p65 (RAW264.7 cells [8]) | level of transcription of NF-κB protein into the nucleus, p50 (BV2 cells [9]) | other results |
| --- | --- | --- | --- | --- | --- | --- | --- | --- | --- | --- | --- | --- | --- | --- | --- | --- | --- | --- | --- | --- | --- |
| CCOc1ccc([C@@H]2COc3c(ccc4c3CCC(C)(C)O4)C2)c(O)c1 [Formula IV-1, (R)-2-(8,8-dimethyl-2,3,4,8,9,10-hexahydropyrano[2,3-f]chromen-3-yl)-5-ethoxyphenol] | 95 | greater | prevented | concentration-dependently decreased | concentration-dependently decreased | concentration-dependently decreased | concentration-dependently decreased | concentration-dependently decreased | concentration-dependently decreased | concentration-dependently decreased | concentration-dependently decreased | concentration-dependently decreased | concentration-dependently decreased | concentration-dependently decreased | concentration-dependently decreased | concentration-dependently decreased | concentration-dependently decreased | concentration-dependently decreased | concentration-dependently decreased | concentration-dependently decreased | level of transcription of NF-κB protein into the nucleus, p65 (BV2 cells [9]): concentration-dependently decreased |
| CCCOc1ccc([C@@H]2COc3c(ccc4c3CCC(C)(C)O4)C2)c(O)c1 [Formula IV-2, (R)-2-(8,8-dimethyl-2,3,4,8,9,10-hexahydropyrano[2,3-f]chromen-3-yl)-5-propoxyphenol] | 93.5 | greater | prevented | concentration-dependently decreased | concentration-dependently decreased | concentration-dependently decreased | concentration-dependently decreased | concentration-dependently decreased | concentration-dependently decreased | concentration-dependently decreased | concentration-dependently decreased | concentration-dependently decreased | concentration-dependently decreased | concentration-dependently decreased | concentration-dependently decreased | concentration-dependently decreased | concentration-dependently decreased | concentration-dependently decreased | concentration-dependently decreased | concentration-dependently decreased | level of transcription of NF-κB protein into the nucleus, p65 (BV2 cells [9]): concentration-dependently decreased |
| CCOc1ccc([C@H]2COc3c(ccc4c3CCC(C)(C)O4)C2)c(O)c1 [Formula V-1, (S)-2-(8,8-dimethyl-2,3,4,8,9,10-hexahydropyrano[2,3-f]chromen-3-yl)-5-ethoxyphenol] | 80.7 | greater | prevented | concentration-dependently decreased | concentration-dependently decreased | concentration-dependently decreased | concentration-dependently decreased | concentration-dependently decreased | concentration-dependently decreased | concentration-dependently decreased | concentration-dependently decreased | concentration-dependently decreased | concentration-dependently decreased | concentration-dependently decreased | concentration-dependently decreased | concentration-dependently decreased | concentration-dependently decreased | concentration-dependently decreased | concentration-dependently decreased | concentration-dependently decreased | level of transcription of NF-κB protein into the nucleus, p65 (BV2 cells [9]): concentration-dependently decreased |
| CCCOc1ccc([C@H]2COc3c(ccc4c3CCC(C)(C)O4)C2)c(O)c1 [Formula V-2, (S)-2-(8,8-dimethyl-2,3,4,8,9,10-hexahydropyrano[2,3-f]chromen-3-yl)-5-propoxyphenol] | 89.4 | greater | prevented | concentration-dependently decreased | concentration-dependently decreased | concentration-dependently decreased | concentration-dependently decreased | concentration-dependently decreased | concentration-dependently decreased | concentration-dependently decreased | concentration-dependently decreased | concentration-dependently decreased | concentration-dependently decreased | concentration-dependently decreased | concentration-dependently decreased | concentration-dependently decreased | concentration-dependently decreased | concentration-dependently decreased | concentration-dependently decreased | concentration-dependently decreased | level of transcription of NF-κB protein into the nucleus, p65 (BV2 cells [9]): concentration-dependently decreased |
